Assay results reported in patent US20130309306A1, “INTRAPULMONARY BENZODIAZEPINE FOR THE TREATMENT AND PREVENTION OF SEIZURES” (priority 2010, published 2013).

Test system: PTZ-induced seizures
Assay: PTZ seizure threshold test in mice (intravenous PTZ infusion), Example 1
Assay type: in vivo
Description: Male NIH Swiss mice (22-30 g) were kept in a vivarium under controlled environmental conditions (temperature, 22-26° C.; humidity, 40-50%) with an artificial 12-h light/dark cycle. Wood chips were used in all cages. Experiments were performed during the light phase of the light/dark cycle after a minimum 30-min period of acclimation to the experimental room. The animal facilities were fully accredited by the Association for Assessment and Accreditation of Laboratory Animal Care. All studies were performed under protocols approved by the Animal Care and Use Committee of the University of California, Davis in strict compliance with the Guide for the Care and Use of Laboratory Animals of the National Research Council (National Academy Press, Washington, D.C.).
Intratracheal administration of midazolam was carried out as described by Oka et al. (2006). In brief, mice were briefly anesthetized using isoflurane anesthesia (4% isoflurane). The animals were immediately placed on a surgical board held at a 60° angle. The animal's mouth was kept open by hanging the upper incisors on a hook to facilitate detection of the epiglottis. An operating light was used to illuminate the view of the pharynx after displacement of the tongue with a spatula. A syringe fitted with a blunted 24-gauge/25-mm was pushed against the soft palate to enter the trachea past the vocal cords. When the tracheal cartilage ring is felt, the needle is considered properly placed within the tracheal lumen. The needle was inserted almost to the bottom of the trachea. When the animals began to show signs that the anesthesia was waning, the liquid sample was gently injected at a dose volume of 0.25 ml/kg. After the injection of solution, air (1 ml syringe) was blown inside the lungs to uniformly distribute the drug in the lungs. Following the injection, the needle was gently removed and animal was held vertically for 2 min to facilitate the downward movement of liquid in the lungs. The animal was allowed 10 min to recover fully from the anesthesia as confirmed by normal spontaneous exploratory behavior. Seizure testing then commenced. For each of the seizure tests, we verified that there was no residual effect of the anesthetic on responsiveness.
The thresholds for various behavioral seizure stages induced by the GABA receptor antagonists PTZ and picrotoxin were determined by infusing the convulsant drugs via a 27 gauge-¾ inch “butterfly” needle inserted into the lateral tail vein. The needle was secured to the tail vein by a narrow piece of adhesive tape and the animal was permitted to move freely inside an inverted 2 litre glass beaker with free aeration from the top. PTZ (10 mg/ml) (Akula et al., 2008), and picrotoxin (1 mg/ml) (Chan et al., 2006) was infused at a constant rate of 0.5 ml/min using a Beckton Dickinson (1 ml) syringe mounted on an infusion pump (Model ‘11’ plus syringe pump; Harvard Apparatus, Holliston, Mass., USA). The syringe was connected to the needle by polyethylene tubing. The infusion was stopped at 3 min or at the onset of tonic extension, whichever occurred first. The thresholds to the following endpoints were determined: (i) the first myoclonic jerk; (ii) the onset of generalized clonus with loss of righting reflexes; and (iii) the onset of tonic extension. Latencies were measured from the start of convulsant infusion to the onset of all these three events. The threshold value (mg/kg) for each endpoint was determined according to the following formula: (infusion duration [sec]×infusion rate [ml/min]×convulsant drug concentration [mg/ml]×1000)/(60 [sec]×weight of mouse [g]).
Results are expressed as mean±S.E.M.; the significance of the difference in the responses of treatment groups with respect to control is based on one-way analysis of variance (ANOVA) followed by specific post-hoc comparisons using Tukey's test. Differences were considered statistically significant when the probability of error was less than 0.05 (P<0.05). […]

## Cc1ncc2n1-c1ccc(Cl)cc1C(c1ccccc1F)=NC2 [Midazolam, midazolam]
25 μg/kg and 50 μg/kg intratracheally, 10 minutes before intravenous PTZ (FIG. 5)
  anticonvulsant activity, PTZ i.v. seizure threshold model: active as anticonvulsant
Administered intraperitoneally (FIG. 5)
  dose required for anticonvulsant activity, PTZ i.v. seizure threshold model: 0.5 mg/kg
Administered intravenously, 10 minutes before intravenous PTZ (FIG. 5)
  dose required for anticonvulsant activity, PTZ i.v. seizure threshold model: 0.1 to 0.2 mg/kg
Intraperitoneal 500, 1000, 2500 and 5000 μg/kg, pretreatment 15 min (FIG. 1A)
  thresholds for all seizure signs (myoclonic jerk, clonus, tonic extension) vs vehicle: significant elevation
Intratracheal 12.5 μg/kg, pretreatment 10 min
  thresholds for seizure signs vs vehicle: enhanced the seizure threshold for clonic but ineffective against tonic extensor phases
Intratracheal 100 μg/kg
  time of maximal effect: 5 to 15 min
Intratracheal 100 μg/kg, pretreatment 5, 10, 20, 40 and 60 min (FIG. 2)
  time course: threshold vs vehicle pretreated animals: elevation in threshold
Intratracheal 25, 50 and 100 μg/kg, pretreatment 10 min (FIG. 1B)
  thresholds for seizure signs vs vehicle: effective
